# Test results reported in publication PMC12348844, “Anti-Trypanosoma cruzi Potential of New Pyrazole-Imidazoline Derivatives” (Molecules, 2025).
# Key:
# [1] = Cytotoxicity assay, Vero cells (CellTiter-Glo); assay type: cell-based; details: African green monkey, mean ± SD
# Method: Vero cells, obtained from the Rio de Janeiro Cell Bank (BCRT code 0245) and maintained through weekly subculturing with a dissociation solution containing 0.25% trypsin-EDTA, initiated once the monolayer reached an 80–100% confluence. Following harvesting, the cells were washed and resuspended in RPMI 1640 medium enriched with 10% fetal bovine serum (FBS). Cultures were maintained at 37 °C in a 5% CO2-humidified incubator. These cultures were used for drug screening assays and for producing culture-derived trypomastigotes of T. cruzi.
# Cytotoxicity assays were performed using Vero cells, which were seeded at a density of 1.5 × 10^4 cells per well in white 96-well plates with clear bottoms. Following a 24 h adhesion period, the cultures were incubated at 37 °C in a 5% CO2 atmosphere. […] After 72 h of incubation, cell viability was assessed by adding CellTiter-Glo reagent (Promega Corporation, Madison, WI, USA), which induces cell lysis and reacts with the released ATP to produce luminescence. The resulting luminescence was measured using a Glomax Multi-Detection plate reader (Promega Corporation, Madison, WI, USA). The half-maximal inhibitory concentration (CC50) for cell viability was then calculated using GraphPad Prism software version 8.2.1.
# T. cruzi (Dm28c-Luc) = experiment: Reversibility (washout) assay in T. cruzi-infected Vero cells; assay type: cell-based, Trypanosoma cruzi; details: for parasite load of cell monolayer at 21 dpi (luminescence): untreated 5 × 10^5 A.L.U
# Method: After treatment, the cultures were thoroughly washed, and parasite recrudescence was evaluated over an extended period of 10 days in RPMI medium supplemented with 10% fetal bovine serum (FBS). Culture supernatants were collected at intervals, and the luminescence signal indicative of trypomastigote release was assessed using a Glomax Multi-Detection plate reader (Promega Corporation, Madison, WI, USA) following the addition of luciferin every 2–3 days. At the experiment’s conclusion, the infection profile of the monolayer was also examined. Cells were fixed with PFA for 20 min at 4 °C, then stained with DAPI for microscopy analysis. Luminescence data were expressed in arbitrary luminescent units (A.L.U), and fluorescence images were acquired using the ImageXpress Micro XLS high-content screening (HCS) system (Molecular Devices, Sunnyvale, CA, USA).
# [2] = test system: T. cruzi Dm28c-Luc in cardiac spheroids; experiment: Efficacy in T. cruzi-infected 3D cardiac microtissues; assay type: cell-based; details: Trypanosoma cruzi, 72 h, read-out: inhibition of parasite load in infected cardiac spheroids
# Method: Three-dimensional (3D) heart muscle cell cultures were obtained as previously described. Briefly, heart muscle cells were isolated from 18-day-old Swiss Webster mouse fetuses. The ventricular tissue was fragmented and enzymatically dissociated using a trypsin and collagenase type II solution. The isolated cells were seeded at a density of 2.5 × 10^4 cells/well in 96-well U-bottom microplates previously coated with 1% agarose. The cells were cultured in Dulbecco’s modified Eagle Medium (DMEM) enriched with 10% FBS, 2.5 mM CaCl2, 1 mM L-glutamine, 2% chicken embryo extract, and a cocktail of antibiotics. The cultures were maintained at 37 °C in a 5% CO2 atmosphere. […]
# The efficacy of the promising candidate was assessed using cardiac 3D microtissues. […] At the end of the experiment, luminescence was measured using a Glomax Multi-Detection plate reader (Promega Corporation, Madison, WI, USA) after adding luciferin solution, with results reported in arbitrary luminescence units (A.L.U). To enhance reliability and provide qualitative, orthogonal validation of these luminescence readings, we employed confocal fluorescence microscopy using 4′,6′-diamidino-2-phenylindole (DAPI) staining. […] Imaging was performed using a Zeiss LSM710 confocal fluorescence microscope (Carl Zeiss, Baden–Württemberg, Germany). […]
smiles,measurement,setting,value
"FC(F)(F)c1ccc(-n2cc(C3=NCCN3)cn2)cc1 [1k, 1-(4-trifluoromethylphenyl)-4-(4,5-dihydro-1H-imidazol-2-yl)-1H-pyrazole]",CC50 at 72 h,[1],244 ± 21.1 µM
same,parasite load of cell monolayer at 21 dpi (luminescence),T. cruzi (Dm28c-Luc); 28.8 µM,4 × 10^4 A.L.U
same,parasite load of cell monolayer at 21 dpi (luminescence),T. cruzi (Dm28c-Luc); 57.6 µM,1.1 × 10^4 A.L.U
same,sterility of cultures in reversibility assay,"T. cruzi (Dm28c-Luc); 10 days treatment, tested conditions",failed to achieve sterility
same,inhibition at 28.8 µM,"T. cruzi (Dm28c-Luc); Trypanosoma cruzi, Vero, 240 h, 28.8 µM (IC90), 10 days treatment + 10 days washout, read-out: inhibition of parasite load of cell monolayer at 21 dpi",92%
same,inhibition at 28.8 µM,[2]; 28.8 µM,90%
same,inhibition at 57.6 µM,[2]; 57.6 µM,94%
